Results taken from patent US10273238B2, “Indazolones as modulators of TNF signaling” (AbbVie Inc., priority 2015, dated 2019).
pIC50: −log10 of the molar value.

biological target: TNFα (Homo sapiens, UniProt P01375); test: TNFα FP Competitive Binding Assay; conditions: 20 nM TNFα trimer, 1 nM OregonGreen488 probe, read-out: TNF IC50
Procedure: TNFα FP Competitive Binding Assay
Prepare 1× Assay Buffer (Water with 47 mil HEPES, 47 mM NaCl, 0.9 mM EDTA, 0.0071% Triton X-100) by adding 25 mL of 1 M HEPES, 5 mL of 5 M NaCl, 1 mL of 0.5 M EDTA, and 375 μL of a 10% Triton X-100 stock to a fresh 500 mL bottle of water.
Prepare fresh Assay Mixture containing 20 nM TNFα trimer (60 nM protein) and 1 nM 2′,7′-difluoro-3′,6′-dihydroxy-N-(2-(2-(2-((4-(isoquinolin-8-yl)-3-(4-(isoquinolin-8-yl)phenethoxy)benzyl)oxy)ethoxy)ethoxy)ethyl)-3-oxo-3H- spiro[isobenzofuran-1,9′-xanthene]-5-carboxamide probe in 1× Assay Buffer.
Top concentration of compounds, 10 mM in DMSO, dispensed in rows A-O in columns 1 and 13. Compounds are serially diluted 1:3 with DMSO in columns 2-12 or 14-24 using a 16-channel Matrix pipettor. Plates stored at −20° C.
Top concentration, 5 mM in DMSO, of compounds placed in rows A-O in columns 1 and 13.
Compounds are serially diluted 1:3 with DMSO in columns 2-12 or 14-24. Compound solutions are dispensed into replicate assay plates at 410 nL per well. Plates stored at 4° C.
TNFα FP Competitive Binding Assay Protocol • 1. Compound plates warmed to rt. • 2. Fresh Assay Mixture is prepared. • 3. Assay Mixture (20 μL) is dispensed each well of 384 assay plates using a Thermo Multidrop Combi or 16-channel Matrix pipettor. If Manual 12-point 1:3 Dilution Plates are to be tested, Assay Mix is dispensed into empty plates. Discovery Preps 12-point 1:3 Dilution Plates already contain 410 nL compound solution in DMSO. • 4. For Manual 12-point 1:3 Dilution Plates, 0.7 μL is manually transferred using a 16-channel Matrix pipettor to replicate assay plates containing 20 μL Assay Mixture for a final top compound concentration of […] (3.4% DMSO). • 5. For Discovery Preps 12-point 1:3 Dilution Plates, 20 μL Assay Mixture added the 410 nL compound solution already in the plates yields a final top compound concentration of 100 μM (2.0% DMSO). • 6. Background subtraction controls are wells P1-P8 containing only Assay Buffer. The low % inhibition controls are wells P9-P16 containing only Assay Mix. The high % inhibition are wells P17-P24 containing only 1 nM 2′,7′-difluoro-3′,6′-dihydroxy-N-(2-(2-(2-((4-(isoquinolin-8-yl)-3-(4-(isoquinolin-8-yl)phenethoxy)benzyl)oxy)ethoxy)ethoxy)ethyl)-3-oxo-3H-spiro[isobenzofuran-1,9′-xanthene]-5-carboxamide probe in 1× Assay Buffer. • 7. Plates are incubated at rt for 18-24 h in […] (CO2 is off). • 8. Prior to reading the assay, the plates are placed in a dark cabinet to equilibrate at rt for one hour. • 9. Background-subtracted fluorescence polarization (mP) is measured using a PerkinElmer Envision plate reader. • 10. Raw data is entered into Assay Explorer and dose-response curves are generated using a variable slope curve.

TNFα, sequence (P01375 77-233 limits assumed): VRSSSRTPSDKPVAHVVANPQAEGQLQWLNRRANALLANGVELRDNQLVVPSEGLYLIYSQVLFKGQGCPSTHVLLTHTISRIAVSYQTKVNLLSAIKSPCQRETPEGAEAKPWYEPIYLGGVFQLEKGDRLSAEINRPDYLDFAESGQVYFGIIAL

Question: How did the pIC50 turn out when CC(C)(O)c1ncc(-c2ccc3c(=O)n4n(c3c2)[C@H](c2ccccc2OC(F)F)CC4)cn1 (single isomer, unassigned) [Example 4.1] was run?
Answer: 5.00 to 6.00

Question: How did the pIC50 turn out when O=C1NC[C@@H]2CN(c3ncc(-c4ccc5c(=O)n6n(c5c4)[C@@H](c4ccccc4OC(F)F)CC6)cn3)CCN12 (single isomer, unassigned) [Example 6.2] was run?
Answer: > 6.00

Question: With COc1ccc(C#N)cc1C1CCn2c(=O)c3ccc(-c4cnc(N5CCOCC5)nc4)cc3n21 (stereo not drawn) [Example 8.3, 4-methoxy-3-(6-(2-morpholinopyrimidin-5-yl)-9-oxo-1,2,3,9-tetrahydropyrazolo[1,2-a]indazol-3-yl)benzonitrile] as the molecule, how does the pIC50 read?
Answer: 5.00 to 6.00

Question: How did the pIC50 turn out when O=c1c2ccc(-c3cnc(N4CCC(O)CC4)nc3)cc2n2n1CCC2c1ccccc1OC(F)F (stereo not drawn) [Example 4.2, 3-(2-(difluoromethoxy)phenyl)-6-(2-(4-hydroxypiperidin-1-yl)pyrimidin-5-yl)-2,3-dihydropyrazolo[1,2-c]indazol-9(1H)-one] was run?
Answer: > 6.00

Question: Cc1ccc(OC(F)F)c([C@H]2CCn3c(=O)c4cc(F)c(-c5cnc(C(C)(C)O)nc5)cc4n32)c1 (single isomer, unassigned) [Example 13.1] was tested. Which pIC50 did it give?
Answer: > 6.00

Question: How did the pIC50 turn out when O=C1c2ccc(-c3cnc(N4CCOCC4)nc3)cc2[C@@H]2[C@H](c3ccccc3OC(F)F)CCN12 (single isomer, unassigned) [Example 9.1] was run?
Answer: < 5.00

Question: O=c1c2ccc(-c3cnc(N4CCOCC4)nc3)cc2n2n1CC[C@H]2c1ccccc1OC(F)F (single isomer, unassigned) [Example 1.2] was tested. Which pIC50 did it give?
Answer: > 6.00

Question: How did the pIC50 turn out when CC(C)(O)c1ncc(-c2cc3c(cc2F)c(=O)n2n3[C@H](c3ccccc3OC(F)F)CC2)cn1 (single isomer, unassigned) [Example 12.2] was run?
Answer: > 6.00

Question: How did the pIC50 turn out when CC(=O)N1CCN(c2ncc(-c3ccc4c(=O)n5n(c4c3)[C@@H](c3ccccc3OC(F)F)CC5)cn2)C[C@H]1C (single isomer, unassigned) [Example 6.3] was run?
Answer: > 6.00

Question: O=C1c2ccc(-c3cnc(N4CCOCC4)nc3)cc2[C@H]2[C@@H](c3ccccc3OC(F)F)CCN12 (single isomer, unassigned) [Example 9.2] was tested. Which pIC50 did it give?
Answer: > 6.00

Question: With O=c1c2ccc(-c3cnc(N4CCO[C@@H](CO)C4)nc3)cc2n2n1CC[C@@H]2c1ccccc1OC(F)F (single isomer, unassigned) [Example 1.8] as the molecule, how does the pIC50 read?
Answer: > 6.00

Question: With O=C1C[C@H](CNc2ncc(-c3ccc4c(=O)n5n(c4c3)[C@@H](c3ccccc3OC(F)F)CC5)cn2)CN1 (single isomer, unassigned) [Example 4.5] as the molecule, how does the pIC50 read?
Answer: 5.00 to 6.00

Question: With O=C1NC[C@H]2CN(c3ncc(-c4ccc5c(=O)n6n(c5c4)[C@@H](c4ccccc4OC(F)F)CC6)cn3)CCN12 (single isomer, unassigned) [Example 6.1] as the molecule, how does the pIC50 read?
Answer: > 6.00

Question: CC(C)(O)c1ncc(-c2ccc3c(c2)[C@@H]2[C@H](c4ccccc4OC(F)F)CCN2C3=O)cn1 (single isomer, unassigned) [Example 10.1] was tested. Which pIC50 did it give?
Answer: < 5.00

Question: Cc1ccc(OC(F)F)c([C@@H]2CCn3c(=O)c4ccc(-c5cnc(N6CCN7C(=O)NC[C@H]7C6)nc5)cc4n32)c1 (single isomer, unassigned) [Example 14.1] was tested. Which pIC50 did it give?
Answer: > 6.00
